A short description of data set [1]: Four-week stability of Form B obtained using various Step 4.1 reaction conditions (40° C./75% RH, HPLC). It is filed as physicochemical. The following applies: 40° C. ± 2° C., 75 ± 5% RH, sealed vial. The source says: The results of the stability study appear in Table 21.
Data set [2] in a line: Stability study of amorphous Form A (decomposition to compound A-2). It is filed as physicochemical.
Data set [3] can be described thus: Dynamic vapor sorption (DVS) test of amorphous Form A. In kind it is physicochemical. The settings on record: 80% relative humidity.
Data set [4] in a line: Phase I study: plasma pharmacokinetics of compound of structure (I) and alvocidib. It is filed as in vivo, human. An excerpt: Patients with advanced metastatic or progressive solid tumors who were refractory to, or intolerant of, established therapy known to provide clinical benefit for their condition were enrolled. Cohorts of 3-6 patients each received escalating doses of compound of structure (I) using a modified Fibonacci dose escalation approach. Once the optimal dose has been established, additional patients may be enrolled to confirm safety and to explore efficacy.
This is an ongoing Phase 1, open-label, dose-escalation, safety, PK and PD study. The proposed starting dose and schedule for oral compound of structure (I) was a 1-mg flat dose once daily (QD) for 14 days followed by a 7-day drug-free recovery period (each cycle=21 days). In the absence of dose-limiting toxicities (DLTs) in the first cohort of at least 3 patients, the dose was increased using a modified Fibonacci dose escalation scheme, and BID dosing commenced according to the dose escalation schedule described in Table 28. The first patient in cohort 6 has been enrolled at 8 mg compound of structure (I) BID. The baseline demographics of the first 14 patients enrolled in the study are described in Table 26.
Plasma PK parameters of compound of structure (I) and alvocidib were evaluated in Cohorts 1-5 at specific timepoints during the study. Blood was collected from patients in Cohorts 1-5 according to the pharmacokinetic sampling schedule described in Table 29.
PK parameters were estimated using standard noncompartmental methods. Actual sample collection times were used rather than scheduled collection times. Plasma concentrations below the limit of quantification were treated as 0. Imbedded missing plasma concentrations (e.g., missing values between two observed values) were estimated using linear […]. This is consistent with using the trapezoidal rule to calculate AUC. Other missing plasma concentrations were excluded from calculations to estimate PK parameters.

In data set [5] the test system is patients with advanced solid tumors. Kind of data set: Phase I study: safety, dose-limiting toxicities and treatment-emergent adverse events. It is filed as in vivo, human. An excerpt:
Patients with advanced metastatic or progressive solid tumors who were refractory to, or intolerant of, established therapy known to provide clinical benefit for their condition were enrolled. Cohorts of 3-6 patients each received escalating doses of compound of structure (I) using a modified Fibonacci dose escalation approach. Once the optimal dose has been established, additional patients may be enrolled to confirm safety and to explore efficacy. This is an ongoing Phase 1, open-label, dose-escalation, safety, PK and PD study. The proposed starting dose and schedule for oral compound of structure (I) was a 1-mg flat dose once daily (QD) for 14 days followed by a 7-day drug-free recovery period (each cycle=21 days). In the absence of dose-limiting toxicities (DLTs) in the first cohort of at least 3 patients, the dose was increased using a modified Fibonacci dose escalation scheme, and BID dosing commenced according to the dose escalation schedule described in Table 28. The first patient in cohort 6 has been enrolled at 8 mg compound of structure (I) BID. The baseline demographics of the first 14 patients enrolled in the study are described in Table 26. […] DLT was defined as any one of the following events observed in cycle 1, regardless of investigator attribution, unless there was a clear alternative explanation: • 1. Grade 3 or greater febrile neutropenia • 2. Grade 4 neutropenia for ≥7 consecutive days • 3. Grade 4 thrombocytopenia or Grade 3 thrombocytopenia with clinically significant bleeding or that requires a platelet transfusion • 4. Grade 3 or 4 nonhematologic AEs will be considered dose limiting, regardless of duration aside from the specific parameters described herein • 5. Grade 4 nausea, vomiting, or diarrhea, regardless of duration • 6. […] Any Grade ≥3 elevations in creatinine • 10. Any Grade 5 toxicity

Where [6] appears, read: patients (% of N = 14), oral dosing, advanced solid tumors.

Molecules are shown by their SMILES.

`CN1CCC(c2c(OP(=O)(O)O)cc(O)c3c(=O)cc(-c4ccccc4Cl)oc23)C(O)C1.Cl` (stereo not shown) [Form A-11]: the A-2 in data set [1] (7 days ± 1 day) is 6.6%; in data set [1] (14 days ± 1 day), 13.7%; in data set [1] (21 days ± 1 day), 19.0%; in data set [1] (28 days ± 1 day), 22.2%; in data set [1] (Initial), 1.02%. In addition, the “HPLC Purity of A-5” value in data set [1] (7 days ± 1 day) is 91.3%; in data set [1] (14 days ± 1 day) it was 84.12%; in data set [1] (21 days ± 1 day) it was 78.5%; in data set [1] (28 days ± 1 day), 75.0%; in data set [1] (Initial), 97.0%.
For `CN1CC[C@H](c2c(OP(=O)(O)O)cc(O)c3c(=O)cc(-c4ccccc4Cl)oc23)[C@H](O)C1` [Form A], the results for the A-2 in data set [1] (7 days ± 1 day), in data set [1] (14 days ± 1 day) and in data set [1] (Initial) were 0.88%, 2.2% and 0.44%, respectively. For the same molecule, the “HPLC Purity of A-5” value is 98.6% in data set [1] (7 days ± 1 day), 97.5% in data set [1] (14 days ± 1 day) and 99.2% in data set [1] (Initial). Besides, the decomposition result in data set [2] (40° C. and 75% relative humidity for one week) is “accelerated decomposition”. Besides, the “degradation to compound A-2” value in data set [2] (after 10 days at room temperature) came out at 6.85%. Moreover, in data set [2] (stored at −20° C.), the degradant trends entry was “no degradant trends”. The “weight of water taken in (DVS), hygroscopicity” value in data set [3] is on record as 12.5%.
For orientation: Tmax means the time at which the peak concentration occurs. With `CN1CC[C@H](c2c(O)cc(O)c3c(=O)cc(-c4ccccc4Cl)oc23)[C@H](O)C1` [alvocidib, 2-(2-chlorophenyl)-5,7-dihydroxy-8-[(3S,4R)-3-hydroxy-1-methylpiperidin-4-yl]chromen-4-one], the “Tmax” value in data set [4] (Cohort 5, 6 mg BID oral Formulation No. 401-01, Cycle 1 Day 1, Mean of subjects 501-503) amounted to 60 min; in data set [4] (Cohort 5, 6 mg BID oral Formulation No. 401-01, Cycle 1 Day 1, Subject 501) it was 30 min; in data set [4] (Cohort 5, 6 mg BID oral Formulation No. 401-01, Cycle 1 Day 1, Subject 502) it was 120 min; in data set [4] (Cohort 5, 6 mg BID oral Formulation No. 401-01, Cycle 1 Day 1, Subject 503) it was 30 min; in data set [4] (Cohort 5, 6 mg BID oral Formulation No. 401-01, Cycle 1 Day 14, Mean of subjects 501-503), 60 min; in data set [4] (Cohort 5, 6 mg BID oral Formulation No. 401-01, Cycle 1 Day 14, Subject 501), 30 min. Also, the “Tmax” value in data set [4] (Cohort 5, 6 mg BID oral Formulation No. 401-01, Cycle 1 Day 14, Subject 502) was 120 min; in data set [4] (Cohort 5, 6 mg BID oral Formulation No. 401-01, Cycle 1 Day 14, Subject 503), 30 min.
With `CN1CC[C@H](c2c(OP(=O)(O)O)cc(O)c3c(=O)cc(-c4ccccc4Cl)oc23)[C@H](O)C1` [compound of structure (I), 2-(2-chlorophenyl)-5-hydroxy-8-((3S,4R)-3-hydroxy-1-methylpiperidin-4-yl)-4-oxo-4H-chromen-7-yl dihydrogen phosphate], the “toxicity observed to date” value in data set [5] (oral, Cohorts to date, patients with advanced solid tumors) is “no unexplained toxicity, and no evidence of dose-limiting diarrhea or neutropenia”. Also, in data set [5] (setting [6]), the “Treatment-emergent adverse events grade ≥ 3: Anemia, Grade 3” value is 1 (7%); the “Treatment-emergent adverse events grade ≥ 3: Chest Pain, Grade 3” value is on record as 1 (7%); the “Treatment-emergent adverse events grade ≥ 3: Haematuria, Grade 3” value is on record as 1 (7%); the “Treatment-emergent adverse events grade ≥ 3: Hypotension, Grade 3” value is 1 (7%). Besides, in data set [5] (setting [6]), the “Treatment-emergent adverse events grade ≥ 3: Hypoxia, Grade 3” value was 1 (7%); the “Treatment-emergent adverse events grade ≥ 3: Malignant Pleural Effusion, Grade 3” value is reported as 1 (7%); the “Treatment-emergent adverse events grade ≥ 3: Pain, Grade 3” value was 1 (7%); the “Treatment-emergent adverse events grade ≥ 3: Swelling, Grade 3” value is listed as 1 (7%).
